{
  "source": "patent US4666886A",
  "about": "“Novel peptide derivatives” (Ciba-Geigy Corporation, priority 1983, dated 1987)",
  "system": "Alveolar rat macrophages",
  "assay": "Activation of alveolar rat macrophages: specific cytotoxicity against 125I-marked tumour cells",
  "type": "cell-based",
  "experimental": "Alveolar rat macrophages are obtained by lung lavage, plated out and incubated in vitro from 24 hours either with liposomes that are charged with the active ingredient, or with the active ingredient in physiological salt solution (phosphate buffered saline, PBS), ^125 I-marked tumour cells are added and incubation is continued for a further 72 hours. Subsequently the dead tumour cells are washed away and the number of tumour cells still living is determined on the basis of their radioactivity. The macrophage activation is assessed on the basis of the cytotoxicity, that is to say according to the proportion of tumour cells dead at the end of the test. The specific cytotoxicity [%] is calculated as follows: [formula] Further details of the above-mentioned test method are described in I. J. Fidler et al., J. Biol. Response Modifiers 1, 43-55 (1982).",
  "note": "Square brackets hold non-standard residues; d marks the D form. Peptide text beside a SMILES is read from it. * marks the point of attachment. X2 = CCCCCCCCCCCC(=O)OC[C@H](C*)OC(=O)CCCCCCCCCCC; Palmitoyl = CCCCCCCCCCCCCCCC(=O)*",
  "data": [
    {"smiles": "CCCCCCCCCCCCCCCC(=O)N[C@@H](CSC[C@@H](COC(=O)CCCCCCCCCCC)OC(=O)CCCCCCCCCCC)C(=O)N[C@H](C)C(=O)N[C@@H](C)C(=O)N[C@H](CCC(=O)O)C(N)=O", "note": "[R, palmitoyl-Cys(2[R], 3-dilauroyloxy-propyl)-D-Ala-Ala-D-Glu-NH2] (Palmitoyl-C(X2)[dA]A[dE]-NH2)", "values": [
      {"measurement": "Specific cytotoxicity [%]", "setting": "active ingredient in 100 μg of liposomes per 0.2 ml, 0.02 μg/culture", "value": 20, "unit": "%"},
      {"measurement": "Specific cytotoxicity [%]", "setting": "active ingredient in 100 μg of liposomes per 0.2 ml, 0.2 μg/culture", "value": 18, "unit": "%"},
      {"measurement": "Specific cytotoxicity [%]", "setting": "active ingredient in 100 μg of liposomes per 0.2 ml, 2 μg/culture", "value": 86, "unit": "%"},
      {"measurement": "Specific cytotoxicity [%]", "setting": "active ingredient in 0.2 ml of PBS, 0.02 μg/culture", "value": 0, "unit": "%"},
      {"measurement": "Specific cytotoxicity [%]", "setting": "active ingredient in 0.2 ml of PBS, 0.2 μg/culture", "value": 84, "unit": "%"},
      {"measurement": "Specific cytotoxicity [%]", "setting": "active ingredient in 0.2 ml of PBS, 2 μg/culture", "value": 51, "unit": "%"}
    ]}
  ]
}
